Several values for one entry are separate records, joined by “and”; a condition that tells them apart may be missing. Equal entries are not always repeated.
System: Lmna G609G/+ mouse
Assay: Body weight of Lmna G609G/+ mice
Type: in vivo
Settings: for Lmna G609G/+ body weight, Ave: group average; for Lmna G609G/+ body weight: individual mouse
From the text: Fig. 3 In vivo favorable effect of SLC-D011. A Gross morphology of Lmna^G609G/G609G mice (10 weeks old) was ameliorated after injection with SLC-D011. At the same age, the experimental group (D011) of mice were larger than vehicle-injected control (Con) subjects regardless of gender. B, C SLC-D011 increases body weight B and extends life span C of Lmna^G609G/G609G progeria model mouse (Con: n = 8; SLC-D011: n = 8). Compared with 14.8 weeks of average (ave) life span with maximum (max) life span of 15.5 weeks, 20 mg/kg of intraperitoneal (i.p) injection (twice a week) of SLC-D011 could extend the life span upto 19 weeks (max = 21 weeks). Lmna^G609G/G609G mice were injected with SLC-D011 from age of 5-week old, *p < 0.05. D Gross morphology of SLC-D011 injected Lmna^G609G/+ mouse. […] E SLC-D011 increases body weights of Lmna^G609G/+ mice (Con: n = 10; SLC-D011: n = 11), *p < 0.05. F Favorable effect of SLC-D011 on life span of Lmna^G609G/+ mice. Compared with vehicle-injected control group (ave = 46.7 weeks and max = 48 weeks), SLC-D011 treatment obviously extended the average life span to 63 weeks (max = 64 weeks). The injection was started from 32 weeks old, **p < 0.001. “Con” means vehicle (a solvent composed of DMSO and PBS)-injected mouse group. TEXT PRINTED IN THE PICTURE: (C) D011: Kaplan-Meier survival curve in Lmna^G609G/G609G: Ave=19; Kaplan-Meier survival curve in Lmna^G609G/G609G: Max=21 | (F) D011: Kaplan-Meier survival curve in Lmna^G609G/+: Ave=63; Kaplan-Meier survival curve in Lmna^G609G/+: Max=64 DOUBTS OF THE COPYIST ABOUT THIS PICTURE: Panels C and F: the Ave/Max labels are not printed with a group name. They are assigned to D011 (solid curve) or Con (dashed curve) only by their position beside the curves. / Panel C Ave=14.8, Max=15.5 and panel F Ave=46.7, Max=48 stand beside the dashed Con curve. They are left out because Con is the control group, not a substance. / No unit is printed with the Ave/Max values. Only the axis reads Age (weeks).
Animal experiments were performed in a facility certified by the Association for Assessment and Accreditation of Laboratory Animal Care in compliance with animal policies approved by Pusan National University. The mouse work was performed under the study protocol PNU-2019-2181, as approved by the Institutional Animal Care and Use Committee. Lmna^G609G/609G mice were generated by timed mating of heterozygous Lmna^G609G/+ provided by Carlos López-Otín (Universidad de Oviedo, Asturias, Oviedo, Spain). SLC-D011 was mixed with dimethyl sulfoxide (DMSO) and phosphate-buffered saline (PBS). It was then intraperitoneally injected into mice (20 mg/kg twice per week from 5-week-old). SLC-D011 and lonafarnib were orally administrated to mice daily at a concentration of 10 mg/ml in monoolein-based solution. Lonafarnib was generously provided by Merck, the Progeria Research Foundation (PRF) and the PRF Lonafarnib Pre-clinical Drug Supply Program. Control mice were treated with monoolein-based solution alone in the same way. Lmna^G609G/609G mice were treated with clear chemical solution throughout the life span, starting from 5 weeks of age. Lmna^G609G/+ mice were treated via intraperitoneal and oral administrations, starting from 32 weeks of age.
Fig. S10. Or al administration of SLC-D011 suppresses premature aging features of LmnaG609G/+ mi c e . A.
Gross morphology of SLC-D011 treated Lmna G609G/+ mice at 36 weeks old. B. Oral administration of SLC-
D011 increases body weight s of LmnaG609G/+ mi c e (untreated: n=11; SLC-D011: n=12), * p<0.05. C. […]
intensity of H3K9me3 levels in lung, liver, and kidney tissues of age-matched Lmn a +/+ mouse, untreated
LamnG609G/+ mouse and two progerinin- treated LmnaG609G/+ mice (n = 2 independent experiments; one
Student’s t -test), **p < 0.001,*p< 0.05, N.S: not significant .AU, arbitrary units.
Fig. S12. […] A. SLC-D011, compar ed to lonafarnib, reduces […]

[1] = column after week 64 (head empty), IP injection with SLC-D011, ratio to week 32
[2] = week 32, IP injection with SLC-D011, ratio to week 32
[3] = week 33, IP injection with SLC-D011, ratio to week 32
[4] = week 34, IP injection with SLC-D011, ratio to week 32
[5] = week 35, IP injection with SLC-D011, ratio to week 32
[6] = week 36, IP injection with SLC-D011, ratio to week 32
[7] = week 37, IP injection with SLC-D011, ratio to week 32
[8] = week 38, IP injection with SLC-D011, ratio to week 32
[9] = week 39, IP injection with SLC-D011, ratio to week 32
[10] = week 40, IP injection with SLC-D011, ratio to week 32
[11] = week 41, IP injection with SLC-D011, ratio to week 32
[12] = week 42, IP injection with SLC-D011, ratio to week 32
[13] = week 43, IP injection with SLC-D011, ratio to week 32
[14] = week 44, IP injection with SLC-D011, ratio to week 32
[15] = week 45, IP injection with SLC-D011, ratio to week 32
[16] = week 46, IP injection with SLC-D011, ratio to week 32
[17] = week 47, IP injection with SLC-D011, ratio to week 32
[18] = week 48, IP injection with SLC-D011, ratio to week 32
[19] = week 49, IP injection with SLC-D011, ratio to week 32
[20] = week 50, IP injection with SLC-D011, ratio to week 32
[21] = week 51, IP injection with SLC-D011, ratio to week 32
[22] = week 52, IP injection with SLC-D011, ratio to week 32
[23] = week 53, IP injection with SLC-D011, ratio to week 32
[24] = week 54, IP injection with SLC-D011, ratio to week 32
[25] = week 55, IP injection with SLC-D011, ratio to week 32
[26] = week 56, IP injection with SLC-D011, ratio to week 32
[27] = week 57, IP injection with SLC-D011, ratio to week 32
[28] = week 58, IP injection with SLC-D011, ratio to week 32
[29] = week 59, IP injection with SLC-D011, ratio to week 32
[30] = week 60, IP injection with SLC-D011, ratio to week 32
[31] = week 61, IP injection with SLC-D011, ratio to week 32
[32] = week 62, IP injection with SLC-D011, ratio to week 32
[33] = week 63, IP injection with SLC-D011, ratio to week 32
[34] = week 64, IP injection with SLC-D011, ratio to week 32

CC1(C)Oc2cc3oc(=O)ccc3cc2C[C@@H]1OC/C=C/c1ccccc1 [SLC-D011]
Lmna G609G/+ body weight, Ave [1]: 0 | Lmna G609G/+ body weight [1]: 0 | Lmna G609G/+ body weight, Ave (oral administration, week 36, relative body weight): 1 | Lmna G609G/+ body weight, Ave (oral administration, week 38, relative body weight): 1.017 | Lmna G609G/+ body weight, Ave (oral administration, week 40, relative body weight): 1.063 | Lmna G609G/+ body weight, Ave (oral administration, week 42, relative body weight): 0.9995 | Lmna G609G/+ body weight, Ave (oral administration, week 44, relative body weight): 0.9298 | Lmna G609G/+ body weight, Ave (oral administration, week 46, relative body weight): 0.9013 | Lmna G609G/+ body weight, Ave (oral administration, week 48, relative body weight): 0.862 | Lmna G609G/+ body weight, Ave (oral administration, week 50, relative body weight): 0.8331 | Lmna G609G/+ body weight, Ave (oral administration, week 52, relative body weight): 0.7877 | Lmna G609G/+ body weight, Ave (oral administration, week 54, relative body weight): 0.7841 | Lmna G609G/+ body weight, Ave (oral administration, week 56, relative body weight): 0.7247 | Lmna G609G/+ body weight, Ave (oral administration, week 58, relative body weight): 0.7038 | Lmna G609G/+ body weight, Ave (oral administration, week 60, relative body weight): 0.6602 | Lmna G609G/+ body weight, Ave (oral administration, week 62, relative body weight): 0.5992 | Lmna G609G/+ body weight, Ave (oral administration, week 64, relative body weight): 0.3905 | Lmna G609G/+ body weight, Ave (oral administration, week 66, relative body weight): 0 | Lmna G609G/+ body weight, Ave [2]: 1 | Lmna G609G/+ body weight [2]: 1 | Lmna G609G/+ body weight, Ave [3]: 1.01 | Lmna G609G/+ body weight [3]: 1 and 1.038 | Lmna G609G/+ body weight, Ave [4]: 1.003 | Lmna G609G/+ body weight [4]: 1 and 0.9583 and 1.038 | Lmna G609G/+ body weight, Ave [5]: 0.9948 | Lmna G609G/+ body weight [5]: 1 and 0.9167 and 1.038 | Lmna G609G/+ body weight, Ave [6]: 0.9886 | Lmna G609G/+ body weight [6]: 1 and 0.9583 | Lmna G609G/+ body weight, Ave [7]: 0.9733 | Lmna G609G/+ body weight [7]: 1 and 0.9167 | Lmna G609G/+ body weight, Ave [8]: 0.9619 | Lmna G609G/+ body weight [8]: 0.9565 and 0.9167 and 1 | Lmna G609G/+ body weight, Ave [9]: 0.9549 | Lmna G609G/+ body weight [9]: 0.9565 and 0.9167 and 0.9615 | Lmna G609G/+ body weight, Ave [10]: 0.925 | Lmna G609G/+ body weight [10]: 0.913 and 0.875 and 0.9615 and 0.963 | Lmna G609G/+ body weight, Ave [11]: 0.925 | Lmna G609G/+ body weight [11]: 0.913 and 0.875 and 0.9615 and 0.963 | Lmna G609G/+ body weight, Ave [12]: 0.9069 | Lmna G609G/+ body weight [12]: 0.913 and 0.8333 and 0.9231 and 0.963 | Lmna G609G/+ body weight, Ave [13]: 0.9077 | Lmna G609G/+ body weight [13]: 0.913 and 0.875 and 0.9231 and 0.9259 | Lmna G609G/+ body weight, Ave [14]: 0.8732 | Lmna G609G/+ body weight [14]: 0.8696 and 0.7917 and 0.9231 and 0.9259 | Lmna G609G/+ body weight, Ave [15]: 0.8778 | Lmna G609G/+ body weight [15]: 0.8696 and 0.8333 and 0.9231 and 0.8889 | Lmna G609G/+ body weight, Ave [16]: 0.8769 | Lmna G609G/+ body weight [16]: 0.8696 and 0.7917 and 0.9615 and 0.8889 | Lmna G609G/+ body weight, Ave [17]: 0.8478 | Lmna G609G/+ body weight [17]: 0.8261 and 0.7917 and 0.9231 and 0.8519 | Lmna G609G/+ body weight, Ave [18]: 0.8359 | Lmna G609G/+ body weight [18]: 0.8261 and 0.75 and 0.9231 and 0.8519 | Lmna G609G/+ body weight, Ave [19]: 0.8036 | Lmna G609G/+ body weight [19]: 0.7826 and 0.75 and 0.8846 and 0.7778 | Lmna G609G/+ body weight, Ave [20]: 0.8111 | Lmna G609G/+ body weight [20]: 0.7826 and 0.7917 and 0.8846 and 0.7778 | Lmna G609G/+ body weight, Ave [21]: 0.8111 | Lmna G609G/+ body weight [21]: 0.7826 and 0.7917 and 0.8846 and 0.7778 | Lmna G609G/+ body weight, Ave [22]: 0.7901 | Lmna G609G/+ body weight [22]: 0.7826 and 0.75 and 0.8462 | Lmna G609G/+ body weight, Ave [23]: 0.7931 | Lmna G609G/+ body weight [23]: 0.7826 and 0.7917 and 0.8462 | Lmna G609G/+ body weight, Ave [24]: 0.7747 | Lmna G609G/+ body weight [24]: 0.7391 and 0.7917 and 0.8077 | Lmna G609G/+ body weight, Ave [25]: 0.7712 | Lmna G609G/+ body weight [25]: 0.7391 and 0.7917 and 0.8077 | Lmna G609G/+ body weight, Ave [26]: 0.7636 | Lmna G609G/+ body weight [26]: 0.7391 and 0.75 and 0.8077 | Lmna G609G/+ body weight, Ave [27]: 0.7611 | Lmna G609G/+ body weight [27]: 0.7391 and 0.75 and 0.8077 | Lmna G609G/+ body weight, Ave [28]: 0.746 | Lmna G609G/+ body weight [28]: 0.6957 and 0.6667 and 0.8077 | Lmna G609G/+ body weight, Ave [29]: 0.6892 | Lmna G609G/+ body weight [29]: 0.7391 and 0 and 0.8077 | Lmna G609G/+ body weight, Ave [30]: 0.6894 | Lmna G609G/+ body weight [30]: 0.6957 and 0.7692 | Lmna G609G/+ body weight, Ave [31]: 0.6156 | Lmna G609G/+ body weight [31]: 0.6087 and 0.7692 | Lmna G609G/+ body weight, Ave [32]: 0.5947 | Lmna G609G/+ body weight [32]: 0 and 0.6923 | Lmna G609G/+ body weight, Ave [33]: 0.5548 | Lmna G609G/+ body weight [33]: 0.6923 | Lmna G609G/+ body weight, Ave [34]: 0.2637 | Lmna G609G/+ body weight [34]: 0.6154

— article PMC7782499, “Progerinin, an optimized progerin-lamin A binding inhibitor, ameliorates premature senescence phenotypes of Hutchinson-Gilford progeria syndrome” (Communications Biology, 2021)
